Data as given in patent US5091368A, “Biologically active compounds from blue-green algae” (Harbor Branch Oceanographic Institution, Inc., priority 1990, dated 1992).
≈ marks a conversion by molar mass, not a printed value.

Columns and labels:
CV-1 cells = assay: Drug cytotoxicity in the antiviral assay; type: cell-based, African green monkey; conditions: anti-HSV-1 assay; ID50 not defined in the text, TI = ID50/ED50
Text: (§1) The antiviral assay for herpes simplex virus type 1 (HSV-1) is a plaque inhibition assay. CV-1 cells (a fibroblast-like cell culture derived from primary African green monkey cells) are infected with the Kos strain of HSV-1 . Cytopathic effects (CPE) of the virus are prevented from rapid spread by a methylcellulose medium. Distinct areas of infected cells or plaques are distinguished from a surrounding area of viable CV-1 cells by staining the culture with neutral red which is a stain taken up by living cells. The viral dose can be quantitated by counting the number of plaques. Compounds with antiviral activity can be identified by comparing the plaque number in the drug treated cells to the HSV-1 viral control.
Confluent cultures of CV-1 cells are rinsed with PBS two times and 4.0 ml trypsin solution is added to 150 cm^2 tissue sulture flask. Cells are dispersed an 10×10^6 CV-1 cells in 40 ml of growth medium are added to new 150 cm^2 flasks. The number of cells added to a cell culture flask is proportional to the area. The cell culture is confluent in 5 to 7 days for use in the antiviral assay. […]
(§2) Discs are placed in wells containing cells, virus, and overlay medium. Plates are incubated at 37° C. for 48 hours, the second overlay medium is added at […] per well, and, after 24 hours additional incubation time, the plates are read. […]

[1] = system: murine splenocytes from BALB/c mice (lymphoid cells); assay: Lymphocyte viability assay (LCV), MTT; type: cell-based; conditions: percent of positive control (no drug)
Experimental: 1. Extra and compounds were similarly tested in parallel with the MLR to determine their toxic effects on lymphoid cells using the lymphocyte viability assay (LCV).
3. Murine splenocyte suspensions were prepared from BALB/c mice. Spleens were aseptically removed and homogenized in RPMI-1640 tissue culture medium (TCM), supplemented with 10% fetal calf serum, 2% 1-glutamine, 15 mM HEPES, 1% antibiotic-antimycotic solution, and 25 μg/ml gentamicin (GIBCO). The cell concentrations were adjusted to 2.5 ×10^6 cells/ml.
4. A volume of 0.2 ml of the splenocyte suspension was added to replicate test wells. Positive control wells received splenocyte suspensions in the absence of the test extracts/compounds.
5. Plates were incubated at 37° C. for 86 hours. At the end of the incubation period, a volume of 75 μl of a 2.0 mg/ml solution of MTT was added to each well, and the plates were returned to the incubator for an additional 5 hours.
6. The supernatants from each microwell were then removed, and a volume of 200 μl of isopropanol was added and the contents mixed.
7. Values were obtained by comparing the optical densities (determined at 570 and 650 nm) of wells containing the test compounds with those of wells containing cells and medium only (positive control). The results are expressed as a percentage of the positive control.
8. Replicate counts were averaged, and the data reported as a percentage of the positive control. An LCV value of less than 60% of the positive control is an indication of cytotoxicity of the test extracts/compounds for lymphoid cells.

[2] = system: murine P388 leukemia cells; assay: Toxicity against murine P388 leukemia cells (MTT, 48 hour exposure); type: cell-based
Experimental: P388 cells obtained from J. Mayo, National Cancer Institute, Bethesda, Md., were maintained in Roswell Park Memorial Institute medium 1640 (RPMI-1640) supplemented with 10% horse serum. All cell lines were cultured in plastic tissue culture flasks and kept in an incubator at 37° C. in humidified air containing 5% CO2. Antibiotic-free stock cultures of P388 cells were subcultured to 10^5 cells/ml by dilution in fresh growth medium at 2-3 day intervals. The means generation time of primary cultures was 14-17 hours.
Solvent for all dilutions was methanol, which was removed from plates under vacuum. All experimental cultures were initiated in medium containing Gentamicin sulfate ([…]; Schering Corporation, Kenilworth, N.J.). […]
To quantitate the effects on cell proliferation, 75 μl of warm growth medium containing 5 mg/ml MTT was added to each well and cultures were returned to the incubator for 90 minutes. To spectophotometrically quantitate formation of reduced formazan, plates were centrifuged (900 xg, 5 minutes), culture fluids removed by aspiration, and 200 μl of acidified isopropanol (2 ml concentrated HCl/liter isopropanol) added per well. The absorbance of the resulting solutions were measured at 570 nm with a plate reader (MR700 Microplate Reader, Dynatech Laboratories, Chantilly, Va.). […]

[3] = system: herpes simplex virus type 1 (HSV-1), Kos strain; assay: HSV-1 plaque inhibition assay in CV-1 cells; type: cell-based; conditions: anti-HSV-1 activity
Text: as §1
Twenty-four well plates (16 mm diameter per well) are seeded with 2×10^5 cells per well in 0.5 ml growth medium and incubated at 37°) C. with 5% CO2. The plates are used in 24 to 72 hours. Each well is infected with at least 25 but no more than 80 plaque forming units (PFU) of virus. Plates are incubated for 1.0 hours at 37° C. with 0.2 ml virus. […]
as §2

[4] = system: combined murine splenocyte suspensions from BALB/c and C57BL/6J mice; assay: Mixed lymphocyte reaction (MLR), 3H-thymidine incorporation; type: cell-based; conditions: percent of positive control (no drug)
Experimental: 1. Murine splenocyte suspensions were prepared separately from BALB/c and C57BL/6J mice. Spleens were aseptically removed and homogenized in RPMI-1640 tissue culture medium (TCM), supplemented with 10% fetal calf serum, 2% 1-glutamine, 15 mM HEPES, 1% antibiotic-antimycotic solution, and 25 μg/ml gentamicin (GIBCO). The cell concentrations were adjusted to 2.5 ×10^6 cells/ml. Aliquots of each cell population were removed to separate tubes, and the remaining two cell suspensions combined to one tube.
3. A volume of 0.2 ml of the combined splenocyte suspensions was added to triplicate test wells. Positive control wells received combined splenocyte suspensions in the absence of the test extracts/compounds. Negative control wells consisted of separate (not mixed) splenocyte suspensions cultured in the absence of the test compounds.
4. Plates were incubated in 5% CO2 at 37° C. for 86 hours.
5. A volume of 0.05 ml of ^3 H-thymidine (20 μCk/ml) was added to each well, and the plates were incubated in 5% CO2 at 37° C. for an additional 5 hours.
6. The contents of each well of the microtiter plates were harvested onto glass fiber filter strips, and the resulting filter discs placed in scintillation vials to which 2.0 ml of scintillation fluid was added.
7. The amount of incorporated ^3 H-thymidine was determined by counting the vials in a liquid scintillation counter.
8. Triplicate counts were averaged, and the data reported as a percentage of the positive control.

Compound	ID50 (CV-1 cells)	% LCV Control ([1]; 2.5 ng/ml)	% LCV Control ([1]; 5.0 ng/ml)	% LCV Control ([1]; 10.0 ng/ml)	% LCV Control ([1]; 20.0 ng/ml)	% LCV Control ([1]; 40.0 ng/ml)	% LCV Control ([1]; 80.0 ng/ml)	% LCV Control ([1]; 160.0 ng/ml)	% LCV Control ([1]; 312.5 ng/ml)	% LCV Control ([1]; 625.0 ng/ml)	% LCV Control ([1]; 1250.0 ng/ml)	% LCV Control ([1]; 2500.0 ng/ml)	% LCV Control ([1]; 5000.0 ng/ml)	IC50 [2]	ED50 [3]	% MLR Control ([4]; 2.5 ng/ml)	% MLR Control ([4]; 5.0 ng/ml)	% MLR Control ([4]; 10.0 ng/ml)	% MLR Control ([4]; 20.0 ng/ml)	% MLR Control ([4]; 40.0 ng/ml)	further results
CCCC[C@@H](C)C[C@@H](C)C(=O)N(C)[C@@H](CC(C)C)C(=O)N[C@H](C(=O)N(C)[C@H](C(=O)N1C[C@@H](O)C[C@H]1C(=O)N1C(=O)C=C[C@@H]1C)C(C)C)[C@H](C)OC(C)=O [Microcolin A, microcolin A]	480 nanograms/ml	78%	71%	80%	82%	60%	59%	59%	48%	52%	31%	18%	3%	0.0009 µg/mL (≈ 1.2 nM)	2.5 nanograms/ml	< 1%	< 1%	< 1%	< 1%	< 1%	% MLR Control ([4]; 80.0 ng/ml): < 1%; % MLR Control ([4]; 160.0 ng/ml): < 1%; % MLR Control ([4]; 312.5 ng/ml): < 1%; % MLR Control ([4]; 625.0 ng/ml): < 1%; % MLR Control ([4]; 1250.0 ng/ml): < 1%; % MLR Control ([4]; 2500.0 ng/ml): < 1%; % MLR Control ([4]; 5000.0 ng/ml): < 1%
microcolin B	1185 nanograms/ml	78%	121%	107%	105%	97%	114%	99%	110%	88%	75%	51%	29%	0.096 µg/mL	146.0 nanograms/ml	93%	87%	80%	39%	1%	% MLR Control ([4]; 80.0 ng/ml): < 1%; % MLR Control ([4]; 160.0 ng/ml): < 1%; % MLR Control ([4]; 312.5 ng/ml): < 1%; % MLR Control ([4]; 625.0 ng/ml): < 1%; % MLR Control ([4]; 1250.0 ng/ml): < 1%; % MLR Control ([4]; 2500.0 ng/ml): < 1%; % MLR Control ([4]; 5000.0 ng/ml): < 1%
